Where a name gives a salt, the structure may show the parent alone. Read-outs that look alike come from different tables or passages of the source.
Legend:
[1] = Solubility in organic solvents; format: physicochemical; conditions: for solubility: organic solvent or mixture
[2] = test system: Granular cell cultures from mouse cerebellum exposed to Glu; assay: Neuroprotective effect against excitotoxicity of Glu in primary neuronal cultures (cell survival, MTT); format: cell-based; conditions: 24 h
Description: In vitro evaluation of the neuroprotective effect against excitotoxicity of Excitatory Amino Acids in primary neuronal cultures of the following compounds was carried out:
The compounds under evaluation, referred to as a, b, c, and d, were solubilized in DMSO and culture medium to obtain concentrations of 100 μM (4% DMSO) and 60 μM (3% DMSO) and added to the culture mediums according to different treatment schedules in order to determine the time-effect relationship vs. the incubation time and the exposure to the neurotoxic stimulus.
Granular cell cultures were obtained from postnatal day 8-9 mouse Balb-6 cerebellum. The cells were suspended in EBM+2 mM L-glutamine, 100 U/ml penicillin, […], 25 mM KCl and 10% fetal calf serum, plated on polylysine substrate, cultured for 8-10 days and then exposed to Glu 500 μM at room temperature for 5 min. The compounds being evaluated were added to the cultures at the same time of exposure, soon after exposure or 15 min after exposure to Glu, and cultured for 60 minutes; cultures were then washed and brought back to the original medium. The number of survived cells was evaluated by […] method (MTT) 24 hours after excitotoxic stimulation.

[3] = Solubility in water; format: physicochemical
[4] = A: compound added at the same time of exposure to Glu (500 μM, 5 min), 60 μM, % of control values, average of three tests, Glu alone 44, read-out: survived cells (%), treatment A, 60 μM
[5] = A: compound added at the same time of exposure to Glu (500 μM, 5 min), % of control values, average of three tests, Glu alone 40, read-out: survived cells (%), treatment A, 100 μM
[6] = B: compound added soon after exposure to Glu (500 μM, 5 min), % of control values, average of three tests, Glu alone 40, read-out: survived cells (%), treatment B, 100 μM
[7] = C: compound added 15 min after exposure to Glu (500 μM, 5 min), 60 μM, % of control values, average of three tests, Glu alone 44, read-out: survived cells (%), treatment C, 60 μM
[8] = C: compound added 15 min after exposure to Glu (500 μM, 5 min), % of control values, average of three tests, Glu alone 40, read-out: survived cells (%), treatment C, 100 μM
[9] = n-octanol, read-out: solubility in n-octanol
[10] = dmso, read-out: solubility in DMSO
[11] = aqueous buffer, 50 mM phosphate buffer, pH 7.4, NaCl 0.9%, read-out: solubility in water: 50 mM phosphate buffer

For `CCCCCCCCCCCCCCCC(=O)NCCO` [Example 1, N-(2-Hydroxyethyl)-Palmitoylamide], the “solubility in organic solvents” value [1] was “hot methanol, CH3 Cl, DMSO”, the viability at 60 µM [2, 4] was 86% and the viability at 100 µM [2, 5] was 67%. It also gave a viability at 100 µM [2, 6] of 84%, a viability at 60 µM [2, 7] of 101% and a viability at 100 µM [2, 8] of 76%. The “solubility in water” value ([3]; water) was “insoluble”.
For `CCCCCCCCCCCCCCCC(=O)NCCOC(C)=O` [Example 2, N-(2-Acetoxyethyl)-Palmitoylamide], the solubility [1, 9] was over 5000 µg/mL and the “solubility in water” value ([3]; water) was “poorly soluble”.
With `CC(=O)OCCNC(=O)c1ccccc1` [Example 3, N-(2-Acetoxyethyl)-Benzoylamide] the solubility [1, 10] was over 10000 µg/mL, the solubility [1, 9] was over 10000 µg/mL and the “solubility in water” value ([3]; water) was “poorly soluble”.
For `CC(=O)OCCNC(=O)/C=C/C(=O)NCCOC(C)=O` [Example 4, N,N'-Bis(2-Acetoxyethyl)-Fumaroylamide], the solubility [1, 10] was over 10000 µg/mL and the “solubility in water” value ([3]; water) was “poorly soluble”.
In the case of `CCCCCCCCCCCCCCCC(=O)NCCOP(=O)(O)O` [Example 5, N-Palmitoylethanolamide Phosphate], the solubility [1, 10] is reported as over 10000 µg/mL, the viability at 60 µM [2, 4] is reported as 68% and the viability at 60 µM ([2]; B: compound added soon after exposure to Glu (500 μM, 5 min), 60 μM, % of control values, average of three tests, Glu alone 44, read-out: survived cells (%), treatment B, 60 μM) is reported as 99%. The viability at 60 µM [2, 7] was 90%, the solubility [3, 11] was over 1000 µg/mL and the “solubility in water” value ([3]; water) was “poorly soluble”.
For `O=C(/C=C/CCCCCCCCC(=O)NCCOP(=O)(O)O)NCCOP(=O)(O)O` [Example 6, N,N'-Bis(2-Hydroxyethyl)-Dodecenediamide Diphosphate Disodium Salt], the solubility ([1]; DMSO, product in acid form, read-out: solubility in DMSO (product in acid form)) was over 10000 µg/mL and the solubility ([3]; water, read-out: solubility in water) was over 10000 µg/mL.
In the case of `CCCCCCCCCCCCCCCC(=O)NCCOC(=O)CCC(=O)O` [Example 7, N-(2-Hydroxyethyl)-Palmitoylamide Succinate Acid], the solubility [1, 10] is reported as over 5000 µg/mL, the “solubility in water” value ([3]; water) is reported as “poorly soluble” and the solubility ([3]; water, as potassium salt, read-out: solubility in water as potassium salt) is reported as over 1000 µg/mL.
For `O=C(O)CCC(=O)OCCNC(=O)C=CCCCCCCCCC(=O)NCCOC(=O)CCC(=O)O` [Example 8, N,N'-Bis(2-Hydroxyethyl)-Dodecenediamide Disuccinate Acid], the solubility [1, 10] was over 10000 µg/mL, the solubility [3, 11] was over 1000 µg/mL and the “solubility in water” value ([3]; water) was “poorly soluble”.
`O=C(CCCCCCCC(=O)NCCO)NCCO` [Example 9, N,N'-Bis-(2-Hydroxyethyl)-Nonandiamide] gave a solubility [1, 10] of over 10000 µg/mL, a viability at 100 µM [2, 5] of 68% and a viability at 100 µM [2, 6] of 92%. It also gave a viability at 100 µM [2, 8] of 87%.
`CCCCC/C=C\C/C=C\C/C=C\C/C=C\CCCC(=O)NCCO` [Example 10, N-(2-Hydroxyethyl)-Arachidonamide] showed a solubility [1, 10] of over 10000 µg/mL, a solubility ([1]; ethanol, read-out: solubility in ethanol) of over 10000 µg/mL and a viability at 60 µM ([2]; read-out: survived cells (%), treatment A, 60 μM) of 95%. For the same compound, the “solubility in water” value ([3]; water) was “poorly soluble”.
`N[C@@H](CCC(=O)O)C(=O)O` [Glu, glutamic acid, reference compound] showed a viability at 500 µM ([2]; read-out: survived cells (%), Glu alone, 60 μM column) of 44% and a viability at 500 µM ([2]; read-out: survived cells (%), Glu alone, 100 μM column) of 40%.

From patent US5925678A, “Use of N-acyl derivatives of aminoalcohols in the manufacture of a medicament for practicing neuroprotective action in neuropathological states connected with excitotoxicity” (Lifegroup S.P.A., priority 1994, dated 1999)
